In data set [1] the target is T1, Ef Pta / EfPta (phosphotransacetylase) (Enterococcus faecalis, UniProt A0ACD6TAM5).
T1 construct: Ni-NTA and Superdex G200; C182 in CoA pocket, R319, S318, D325 in active site
The data set is described as follows: thioester formation at […] nm. In kind it is biochemical. The following applies: 5 mM acetylphosphate; 25 mM Tris-HCl, 40 mM KCl, pH 8.0, room temperature, anaerobic; 10 uM to 5 mM CoA.

For data set [2], the target named is Enterococcus faecalis coenzyme A persulfide (CoASSH) reductase (Enterococcus faecalis strain OG1RF). As to the kind of experiment: crystal structure; EfCoAPR as isolated from E. coli, with FAD and CoA (PAP moiety seen); crystals in 20% PEG 3350, 0.1 M Bis-Tris propane pH 6.50, 0.2 M sodium iodide; two molecules in the asymmetric unit; 2.05 Å.
The target of data set [3] is T1, Ef Pta / EfPta (phosphotransacetylase). The data set is described as follows: acetyl-CoA yield by LC-MS after […] s. The format is biochemical. To be noted: 150 uM CoASSH as in situ mixture with equimolar CoASH, excess Na2S and CoA disulfide; 5 mM acetylphosphate, pH 8.0, room temperature, anaerobic.
Substrate in the data set “purified protein”: CC(=O)SCCNC(=O)CCNC(=O)[C@H](O)C(C)(C)COP(=O)(O)OP(=O)(O)OC[C@H]1O[C@@H](n2cnc3c(N)ncnc32)[C@H](O)[C@@H]1OP(=O)(O)O
The data set is described as follows: purified protein. The format is biochemical, Enterococcus faecalis. To be noted: 5 mM KH2PO4, 25 mM Tris-HCl, 40 mM KCl, pH 8.0, room temperature, anaerobic, 10 uM to 5 mM acetyl-CoA.

Regarding CoA, the Km in data set [1] was found to be 69 µM.
As usually defined, the stoichiometry N is the number of molecules, sites or subunits per partner or assembly. “Enterococcus faecalis coenzyme A persulfide (CoASSH) reductase” returned a stoichiometry N in data set [2] of 2.
On to `CC(C)(COP(=O)(O)OP(=O)(O)OC[C@H]1O[C@@H](n2cnc3c(N)ncnc32)[C@H](O)[C@@H]1OP(=O)(O)O)[C@@H](O)C(=O)NCCC(=O)NCCSS` [CoASSH], for which, in data set [3], the “inhibition of acetyl-CoA formation” value is “This inhibition of activity was due to CoASSH specifically”.

B1: Ef Pta / EfPta (phosphotransacetylase) (Enterococcus faecalis OG1RF) (protein)
chain: MYDGFCKYKTGGFIVELFDSLKFKVVRRNIKIVFPEATDPRILGAAARLKSDELVEPILIGDPTDIANAAMARGINTSNFIIINPNDYEKWDEMVEAFVERRNGKATKEDAEKILKDVNYFGTMLTYMGIADGMVSGAIHSTGDTVRPALQIIKTKPGVSRTSGAFLMIRGRDQERYLFSDCAINVNPTAQELAEIAVDSAKTAELFDIEPKVSLLSFSTKGSAKAPEVTKVAEATKIAQELAPEYAIDGELQFDASYVSSVAQLKAPNSKVAGEATVFVFPDLQSGNIGYKIAQRLGNFEAIGPILQGLNKPVSDLSRGANEEDVYKLSIITAAQTLMND
notes: Ni-NTA and Superdex G200; C182 in CoA pocket, R319, S318, D325 in active site
In the case of B1, the Km in the data set “purified protein” is recorded as 57 (±16) μM.

The values are drawn from PMC9405070, “Metabolic and Structural Insights into Hydrogen Sulfide Mis-Regulation in Enterococcus faecalis” (Antioxidants, 2022).
